In ChEMBL document CHEMBL5465560, “Selectivity Literature for EUbOPEN Chemogenomic Library” (2024):

Experiments:
[1] = biological target: T1, Aurora kinase A (Homo sapiens) (UniProt O14965); test: Selectivity interaction (ActivX KiNativ screen (kinase selectivity in THP-1 cell lysates)) EUB0000639a STK6; format: subcellular; details: lysate, at 0.01 µM
T1 sequence (whole entry): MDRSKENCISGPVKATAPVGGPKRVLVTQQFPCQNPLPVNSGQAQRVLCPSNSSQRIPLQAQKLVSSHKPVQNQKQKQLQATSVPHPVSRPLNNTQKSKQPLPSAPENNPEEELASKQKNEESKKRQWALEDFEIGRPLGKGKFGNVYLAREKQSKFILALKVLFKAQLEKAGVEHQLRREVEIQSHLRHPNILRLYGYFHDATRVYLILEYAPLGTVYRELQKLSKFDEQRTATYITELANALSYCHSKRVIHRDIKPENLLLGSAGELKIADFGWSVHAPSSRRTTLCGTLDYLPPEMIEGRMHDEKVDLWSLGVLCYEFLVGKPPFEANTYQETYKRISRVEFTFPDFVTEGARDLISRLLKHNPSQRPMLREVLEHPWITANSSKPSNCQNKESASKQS

[2] = biological target: T2, Dual specificity mitogen-activated protein kinase kinase 4 (Homo sapiens) (UniProt P45985); test: Selectivity interaction (KinomeScan (DiscoverX)) EUB0000595a MAP2K4; details: at 10 µM
T2 sequence (whole entry): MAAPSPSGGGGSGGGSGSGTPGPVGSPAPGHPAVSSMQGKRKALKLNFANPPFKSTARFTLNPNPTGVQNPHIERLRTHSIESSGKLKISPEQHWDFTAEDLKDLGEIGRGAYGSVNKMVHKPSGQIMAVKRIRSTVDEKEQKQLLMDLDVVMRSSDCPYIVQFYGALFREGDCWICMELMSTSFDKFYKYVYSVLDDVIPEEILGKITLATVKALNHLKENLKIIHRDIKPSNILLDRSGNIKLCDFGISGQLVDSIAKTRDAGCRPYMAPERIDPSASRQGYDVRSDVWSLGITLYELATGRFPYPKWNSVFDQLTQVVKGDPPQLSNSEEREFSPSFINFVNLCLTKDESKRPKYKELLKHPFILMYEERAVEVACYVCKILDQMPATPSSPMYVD

[3] = tested on: Phosphatidylinositol 4,5-bisphosphate 3-kinase catalytic subunit alpha isoform (Homo sapiens), P42336 [I800L]; test: (§1) Selectivity interaction (KinomeScan (DiscoverX)) EUB0000045b PIK3CA
[4] = biological target: Phosphatidylinositol 4,5-bisphosphate 3-kinase catalytic subunit alpha isoform (Homo sapiens) (UniProt P42336); test: as §1
[5] = tested on: Phosphatidylinositol 4,5-bisphosphate 3-kinase catalytic subunit alpha isoform (Homo sapiens), P42336 [M1043I]; test: as §1
[6] = tested on: Phosphatidylinositol 4,5-bisphosphate 3-kinase catalytic subunit alpha isoform (Homo sapiens), P42336 [H1047L]; test: as §1
[7] = tested on: Phosphatidylinositol 4,5-bisphosphate 3-kinase catalytic subunit alpha isoform (Homo sapiens), P42336 [E542K]; test: as §1
Chain of Phosphatidylinositol 4,5-bisphosphate 3-kinase catalytic subunit alpha isoform (Homo sapiens), P42336 [E542K] (P42336 whole entry E542K, canonical isoform): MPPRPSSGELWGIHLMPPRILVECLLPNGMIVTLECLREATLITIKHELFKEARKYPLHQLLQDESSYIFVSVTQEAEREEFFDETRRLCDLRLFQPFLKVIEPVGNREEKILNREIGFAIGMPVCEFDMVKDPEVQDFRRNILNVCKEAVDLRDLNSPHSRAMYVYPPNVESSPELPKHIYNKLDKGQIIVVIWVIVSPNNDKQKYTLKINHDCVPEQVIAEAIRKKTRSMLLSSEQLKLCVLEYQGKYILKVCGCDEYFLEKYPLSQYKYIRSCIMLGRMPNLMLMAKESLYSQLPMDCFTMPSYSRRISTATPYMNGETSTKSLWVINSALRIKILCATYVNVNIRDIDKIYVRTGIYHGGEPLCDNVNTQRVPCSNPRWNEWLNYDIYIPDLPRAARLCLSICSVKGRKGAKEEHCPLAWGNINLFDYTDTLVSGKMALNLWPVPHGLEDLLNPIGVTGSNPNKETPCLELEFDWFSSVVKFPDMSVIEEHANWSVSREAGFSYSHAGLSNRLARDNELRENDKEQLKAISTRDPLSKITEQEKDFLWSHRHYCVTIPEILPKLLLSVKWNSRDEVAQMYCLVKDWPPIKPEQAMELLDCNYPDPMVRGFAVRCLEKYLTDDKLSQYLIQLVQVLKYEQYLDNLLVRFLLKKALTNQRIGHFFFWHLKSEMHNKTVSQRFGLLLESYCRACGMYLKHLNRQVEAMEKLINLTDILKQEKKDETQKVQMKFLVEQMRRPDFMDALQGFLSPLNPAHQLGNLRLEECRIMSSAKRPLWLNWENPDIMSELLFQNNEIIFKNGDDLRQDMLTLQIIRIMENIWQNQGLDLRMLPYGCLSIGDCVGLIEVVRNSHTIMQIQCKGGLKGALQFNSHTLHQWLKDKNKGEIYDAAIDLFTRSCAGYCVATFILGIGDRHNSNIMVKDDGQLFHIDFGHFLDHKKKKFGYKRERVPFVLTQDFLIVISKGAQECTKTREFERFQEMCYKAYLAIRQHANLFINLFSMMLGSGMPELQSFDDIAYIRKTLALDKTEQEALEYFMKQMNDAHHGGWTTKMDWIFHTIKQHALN

[8] = tested on: Phosphatidylinositol 4,5-bisphosphate 3-kinase catalytic subunit alpha isoform (Homo sapiens), P42336 [H1047Y]; test: as §1
Chain of Phosphatidylinositol 4,5-bisphosphate 3-kinase catalytic subunit alpha isoform (Homo sapiens), P42336 [H1047Y] (P42336 whole entry H1047Y, canonical isoform): as the sequence (P42336 whole entry E542K, canonical isoform) above, with K542E, H1047Y counted along it

[9] = tested on: Phosphatidylinositol 4,5-bisphosphate 3-kinase catalytic subunit alpha isoform (Homo sapiens), P42336 [Q546K]; test: as §1
[10] = tested on: Phosphatidylinositol 4,5-bisphosphate 3-kinase catalytic subunit alpha isoform (Homo sapiens), P42336 [E545K]; test: as §1
Chain of Phosphatidylinositol 4,5-bisphosphate 3-kinase catalytic subunit alpha isoform (Homo sapiens), P42336 [E545K] (P42336 whole entry E545K, canonical isoform): as the sequence (P42336 whole entry E542K, canonical isoform) above, with K542E, E545K counted along it

[11] = tested on: Phosphatidylinositol 4,5-bisphosphate 3-kinase catalytic subunit alpha isoform (Homo sapiens), P42336 [E545A]; test: as §1
Chain of Phosphatidylinositol 4,5-bisphosphate 3-kinase catalytic subunit alpha isoform (Homo sapiens), P42336 [E545A] (P42336 whole entry E545A, canonical isoform): as the sequence (P42336 whole entry E542K, canonical isoform) above, with K542E, E545A counted along it

[12] = tested on: Phosphatidylinositol 4,5-bisphosphate 3-kinase catalytic subunit alpha isoform (Homo sapiens), P42336 [C420R]; test: as §1
[13] = biological target: Cyclin-dependent kinase 11B (Homo sapiens) (UniProt P21127); details: at 10 µM
Chain of Cyclin-dependent kinase 11B (Homo sapiens) (P21127 whole entry): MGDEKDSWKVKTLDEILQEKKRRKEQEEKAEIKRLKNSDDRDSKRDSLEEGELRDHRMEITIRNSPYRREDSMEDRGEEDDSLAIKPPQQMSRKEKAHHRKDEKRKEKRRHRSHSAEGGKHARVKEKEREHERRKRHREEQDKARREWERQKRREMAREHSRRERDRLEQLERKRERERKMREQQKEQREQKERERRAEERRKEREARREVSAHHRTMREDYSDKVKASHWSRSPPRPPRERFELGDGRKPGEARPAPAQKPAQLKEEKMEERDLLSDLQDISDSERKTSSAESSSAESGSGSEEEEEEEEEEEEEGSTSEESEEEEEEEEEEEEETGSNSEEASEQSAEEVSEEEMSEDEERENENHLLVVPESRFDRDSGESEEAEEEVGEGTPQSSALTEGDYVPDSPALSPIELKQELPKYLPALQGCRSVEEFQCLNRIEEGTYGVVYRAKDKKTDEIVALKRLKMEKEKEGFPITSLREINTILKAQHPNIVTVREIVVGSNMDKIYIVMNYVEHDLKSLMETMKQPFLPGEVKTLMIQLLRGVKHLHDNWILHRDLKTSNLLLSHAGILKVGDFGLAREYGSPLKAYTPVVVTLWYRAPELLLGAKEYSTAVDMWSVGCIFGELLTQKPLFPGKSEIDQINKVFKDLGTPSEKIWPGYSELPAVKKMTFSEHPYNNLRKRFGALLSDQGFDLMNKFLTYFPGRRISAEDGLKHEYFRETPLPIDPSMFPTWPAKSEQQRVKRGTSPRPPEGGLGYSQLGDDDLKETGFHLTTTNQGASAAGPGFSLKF

[14] = biological target: Tyrosine-protein kinase Fes/Fps (Homo sapiens) (UniProt P07332); test: Selectivity interaction (KinomeScan (DiscoverX)) EUB0000655a FES; details: at 10 µM
[15] = biological target: Serine/threonine-protein kinase WNK2 (Homo sapiens) (UniProt Q9Y3S1); test: Selectivity interaction (LanthaScreen Eu Kinase Binding Assay) EUB0001632a WNK2; details: at 10 µM
[16] = biological target: Receptor-interacting serine/threonine-protein kinase 3 (Homo sapiens) (UniProt Q9Y572); test: Selectivity interaction (LanthaScreen Eu Kinase Binding Assay) EUB0001632a RIPK3; details: at 10 µM
[17] = biological target: T3, Histone-arginine methyltransferase CARM1 (Homo sapiens) (UniProt Q86X55); test: Selectivity interaction (Methyltransferase screen (radiometric assays, panel of 8 PRMTs, 21 protein lysine methyltransferases, 3 DNA methyltransferases, and one RNA methyltransferase)) EUB0000271b CARM1
T3 sequence (whole entry): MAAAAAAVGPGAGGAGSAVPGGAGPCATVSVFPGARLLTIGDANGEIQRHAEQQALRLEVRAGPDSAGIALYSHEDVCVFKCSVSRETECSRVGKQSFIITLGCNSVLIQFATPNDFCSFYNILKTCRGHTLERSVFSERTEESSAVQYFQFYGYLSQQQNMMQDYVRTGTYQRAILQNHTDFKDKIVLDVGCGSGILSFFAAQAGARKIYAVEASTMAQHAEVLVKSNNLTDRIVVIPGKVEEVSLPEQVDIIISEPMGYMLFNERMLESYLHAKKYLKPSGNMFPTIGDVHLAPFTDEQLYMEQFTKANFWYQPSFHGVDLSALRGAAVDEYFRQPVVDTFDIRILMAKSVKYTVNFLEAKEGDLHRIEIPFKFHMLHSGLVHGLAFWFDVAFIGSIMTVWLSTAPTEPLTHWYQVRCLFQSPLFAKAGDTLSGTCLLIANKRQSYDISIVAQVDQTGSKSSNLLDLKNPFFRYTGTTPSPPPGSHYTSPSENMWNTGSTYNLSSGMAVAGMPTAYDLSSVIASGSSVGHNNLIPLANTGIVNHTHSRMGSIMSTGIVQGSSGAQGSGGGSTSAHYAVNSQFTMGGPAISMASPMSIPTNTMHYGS

SMILES: CC[C@@H]1[C@H](F)C(=O)N[C@@H]1COc1nccc2cc(C(N)=O)c(OC)cc12 [ZIMLOVISERTIB]
- % of inhibition [1]: 4.9%

SMILES: COCC(=O)NC/C=C/c1ccc2ncnc(Nc3ccc(Oc4ccc(C)nc4)c(C)c3)c2c1 [CP-724714]
- % of control [2]: 95%

SMILES: C=CC(=O)Nc1cc(-n2c(=O)ccc3cnc4ccc(-c5ccc(NS(C)(=O)=O)cc5)cc4c32)ccc1C
- % of control ([3]; at 1 µM): 46%
- % of control ([3]; at 10 µM): 7.6%
- % of control ([4]; at 1 µM): 68%
- % of control ([4]; at 10 µM): 9.9%
- % of control ([5]; at 1 µM): 100%
- % of control ([5]; at 10 µM): 24%
- % of control ([6]; at 1 µM): 100%
- % of control ([6]; at 10 µM): 86%
- % of control ([7]; at 1 µM): 100%
- % of control ([7]; at 10 µM): 23%
- % of control ([8]; at 1 µM): 88%
- % of control ([8]; at 10 µM): 26%
- % of control ([9]; at 1 µM): 100%
- % of control ([9]; at 10 µM): 35%
- % of control ([10]; at 1 µM): 100%
- % of control ([10]; at 10 µM): 74%
- % of control ([11]; at 1 µM): 90%
- % of control ([11]; at 10 µM): 17%
- % of control ([12]; at 1 µM): 100%
- % of control ([12]; at 10 µM): 32%

SMILES: Cc1cc([C@@H](C)Nc2ccccc2C(=O)O)c2nc(N3CCOCC3)cc(=O)n2c1 [AZD-6482]
- % of control [13]: 100%

SMILES: CN(C)CCOc1ccc(-c2nc(-c3ccncc3)c(-c3ccc4c(c3)CC/C4=N\O)[nH]2)cc1
- % of control [14]: 100%

SMILES: Cn1cc(-n2cnc3c(NCc4nc5cc(Cl)c(Cl)cc5[nH]4)nc(N4CCOCC4)nc32)cn1
- % of inhibition [15]: -13.6%
- % of inhibition [16]: -15.4%

SMILES: Cc1cc(C)cc([C@@H]2c3cc(C)ccc3NC(=O)CN2C(=O)c2ccc(Br)s2)c1
- % of activity ([17]; at 1 µM): 98%
- % of activity ([17]; at 10 µM): 96.3%
